Activity calls are given as the source filed them.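 The calls were made as follows: active = compounds giving half or more protection of infected cells from virus-caused growth loss, again on retest; inactive = the rest.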 Where a SMILES comes first, the peptide text is derived from it. [ ]: non-standard residue; d: D form. pGlu = O=C1CC[CH](C(=O)O)N1; Thz = O=C(O)[CH]1CSCN1
Test system: CEM cells HIV-1 protection, formazan growth assay
Assay: NCI AIDS Antiviral Assay
Details: for IC50: measured here: growth of uninfected CEM cells
In short: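 Category rules: moderately active means at least 50% protection on retest, and confirmed active means 100% protection reproducibly. The underlying data came from a formazan growth assay in HIV-1-infected CEM cells.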

| Compound | EC50 [µM] | IC50 [µM] | outcome |
| --- | --- | --- | --- |
| O=C1C(=O)N(c2ccc(Cl)cc2)C(=O)C(=O)C1c1nc2ccccc2s1 | > 18.6 | > 18.6 |  |
| CC1(C)OCC(CO)(CO)CO1 | > 1410 | > 1410 |  |
| Nc1ccc(S(=O)(=O)N/N=C/c2ccco2)cc1 | > 676 | > 676 |  |
| CCC(C)CCOC(=O)c1ccc(N=Cc2ccc(C=Nc3ccc(C(=O)OCCC(C)CC)cc3)cc2)cc1 (configuration not stated) | > 6.61 | > 6.61 |  |
| O=C1C(c2[nH]c3ccc(S(=O)(=O)O)cc3c2O)=Nc2ccc(S(=O)(=O)O)cc21 | > 200 | > 200 |  |
| O=C1c2ccccc2C(=O)c2c(/C=C\N3CCCCC3)ccnc21 | > 8.51 | > 8.51 |  |
| COC(=O)C(Br)C1CCc2ccccc21 (configuration not stated) | > 251 | 141 |  |
| COC(=O)[C@H]1CO[C@@H](C(C)(C)C)N1C(=O)N1C=CC(=O)C[C@@H]1C | > 200 | > 200 |  |
| CC(c1ccccc1)/[N+]([O-])=C/c1ccccc1 (configuration not stated) | > 1120 | > 1120 |  |
| CC1=CC(C)(c2c[nH]c3ccccc23)CC(C)(C)c2c1[nH]c1ccccc21 (configuration not stated) |  |  | inactive |
| CC1(C)CCCC2(C)C3C(O)CC2(C)C(O)C31 (configuration not stated) | > 282 | > 282 |  |
| CO[C@](C(=O)OC[C@H]1[C@@H](COC(C)=O)[C@@H]2O[C@H]1c1cc3c(cc12)OCO3)(c1ccccc1)C(F)(F)F | > 200 | 7.59 |  |
| CCN(CC)C(=O)c1cc(=O)c(C)c2oc3c(C)c(O)c(N)c(C(=O)N(CC)CC)c3nc1-2 | > 200 | 110 |  |
| Cc1cc(=O)[nH]c2cc(NC(=O)C(CCCN=C(N)N)NC(=O)OCc3ccccc3)ccc12 (configuration not stated) | > 200 | > 200 |  |
| C/C1=C\[C@H](C)C[C@H](C)OC(=O)C[C@H](c2ccc(O)cc2)NC(=O)[C@@H](Cc2c(Br)[nH]c3ccccc23)N(C)C(=O)[C@H](C)NC(=O)[C@@H](C)C1 | > 2 | 0.0302 |  |
| Cn1c(=O)[nH]c2c([nH]c(=O)c(=O)n2C)c1=O | > 200 | > 200 |  |
| O=[N+]([O-])c1ccc2nsnc2c1 | > 105 | 47.9 |  |
| CCCCCCC(=O)C(O)C(O)C(=O)CCCCCCCC(=O)O (configuration not stated) | > 200 | 97.7 |  |
| Cc1c2c(n3c(nc4ccccc43)c1C#N)N(c1ccc(F)cc1)CC2 | > 200 | > 200 |  |
| O=C(NO)c1ccc(OCc2ccccc2)cc1 | > 200 | 16.2 |  |
| CCCNCCOc1nc(Cl)c(Cl)cc1Cl | > 200 | 126 |  |
| CCOC(=O)C1C(c2ccc(OC)cc2)c2c([nH]n(-c3ccccc3)c2=O)CC1(C)O (configuration not stated) |  |  | inactive |

| Compound | EC50 [µM] | IC50 [µM] | outcome |
| --- | --- | --- | --- |
| COc1cccc(/C=N/[N-]C(=O)c2ccncc2)c1[O-].COc1cccc(/C=N/[N-]C(=O)c2ccncc2)c1[O-].[O]=[U](=[O])([OH2+])[OH2+] | > 214 | 4.9 |  |
| COC(=O)/C(C#N)=C/NC(=S)Nc1ccccc1 | > 200 | > 200 |  |
| COc1ccc(C2Oc3c(cccc3OC)C=C2[N+](=O)[O-])cc1OC (configuration not stated) | > 200 | 1.2 |  |
| O=C(c1cccc(O)c(=O)c1)C1OC1c1ccccc1 (configuration not stated) | > 145 | 2.82 |  |
| C[C@H]1C=C2[C@@H]3CC(C)(C(=O)O)CC[C@]3(C)CC[C@]2(C)[C@]2(C)CC[C@H]3C(C)(C)[C@@H](OC(=O)c4cccc5c(=O)c6ccccc6[nH]c45)CC[C@]3(C)[C@@H]12 (some centres not stated) | > 100 | 35.5 |  |
| NC(CO)Cc1cnc[nH]1 (configuration not stated) | > 200 | > 200 |  |
| Cc1cc(-c2cccs2)oc(=O)c1NC(=O)c1ccccc1 | > 200 | 26.9 |  |
| CN(C)CCCNc1c2ccccc2nc2cccc([N+](=O)[O-])c12 | > 0.2 | 0.000407 |  |
| Cc1csc(NNC(=O)Nc2ccccc2)n1 | > 129 | 43.7 |  |
| Cn1cnc([N+](=O)[O-])c1Sc1ncn[nH]1 | > 1100 | 17.8 |  |
| CC1(C)Cc2nnsc2C2=C1C(=O)CCS2 |  |  | inactive |
| [O-]c1c(-c2ccccc2)[se]c(-c2ccccc2)[n+]1-c1ccccc1 |  |  | inactive |
| c1ccc(SCCC(Sc2ccccc2)Sc2ccccc2)cc1 | > 200 | 93.3 |  |
| C=C1OC(c2ccccc2NC)=NC12CCCCC2 | > 200 | 115 |  |
| CCCc1nc(NC#N)nc(C(=O)NC23CC4CC(CC(C4)C2)C3)c1C | > 355 | > 355 |  |
| CC(C)=CCC[C@@H](C)C1=C(Nc2ccccc2)C(O)=C(C)C(=O)C1=O | > 200 | 3.02 |  |
| CCOC(=O)C(C)(CCC(C)(C(=O)OCC)C(=O)OCC)C(=O)OCC | > 200 | 75.9 |  |
| CCCCCCCCCCCC(=O)OCC1OC(n2cc(F)c(=O)[nH]c2=O)C(N)C(OC(=O)CCCCCCCCCCC)C1O (configuration not stated) | > 3.02 | > 3.02 |  |
| CC(=O)NC1C(OC2C(CO)OC(OCC3OC(n4ccc(N)nc4=O)C(O)C3O)C(NC(C)=O)C2O)OC(CO)C(O)C1O (configuration not stated) | > 200 | 11.2 |  |
| CC1(C)C2CCC1C(=O)C(C=O)C2 (configuration not stated) | > 200 | > 200 |  |
| O=C(O)c1cc(O)c2ccc(N=Nc3ccc(/C=C/c4ccc(N=Nc5ccc6c(O)cc(C(=O)O)nc6c5O)cc4S(=O)(=O)O)c(S(=O)(=O)O)c3)c(O)c2n1 | 10.2 | 50.1 |  |
| NCCCCN(CCCN)/[N+]([O-])=N\O | > 7590 | 91.2 |  |

| Compound | EC50 [µM] | IC50 [µM] | outcome |
| --- | --- | --- | --- |
| O=[N+]([O-])c1c(Cl)cccc1-c1c[nH]c(Cl)c1Cl | > 123 | 20.4 |  |
| CS(=O)(=O)Nc1ccc2c(c1)N(S(C)(=O)=O)CC2COS(C)(=O)=O (configuration not stated) | > 200 | 40.7 |  |
| O=c1cc(-c2ccccc2)oc2c(-c3cc(Cl)cc4c(=O)cc(-c5ccccc5)oc34)cc(Cl)cc12 | > 200 | 38.9 |  |
| O=C(O)c1ccc2c[n+]3ccccc3cc2c1 | > 427 | > 427 |  |
| S=c1n(-c2ccc(Cl)cc2)c2nc3ccccc3nc(/c2=N\Nc2cc(Cl)ccc2Cl)n1-c1ccccn1 | > 200 | 18.2 |  |
| COC(=O)c1ccccc1CC1Cc2cc3c(cc2C1=O)CCC3 (configuration not stated) | > 200 | 7.59 |  |
| Nc1nc(Cl)cc(NCCCCCCCCCCNc2cc(Cl)nc(N)n2)n1 |  |  | inactive |
| O=C(NCCN1CCCCC1)c1cccc(I)c1 | > 200 | > 200 |  |
| COC1=CC(=O)C(C#CCOCc2ccccc2)=CC1=O | > 200 | 14.8 |  |
| C=CCOC(=O)C1C2OC3(C(C(=O)OC)=C2C(=O)OC)c2ccccc2CCC13 (configuration not stated) | > 200 | 1.15 |  |
| O=c1nc(NC2CCCCO2)ccn1CCO (configuration not stated) | > 1050 | > 1050 |  |
| COc1ccc(O[C@H](COCc2ccccc2)C[C@@H]2COC(C)(C)O2)cc1 |  |  | inactive |
| CCOC(=O)Cc1cc(=O)[nH]n(-c2ccccc2)c1=O |  |  | inactive |
| CN(C)CC(CC1=C(CC(CN(C)C)N(C)C)CCC1)N(C)C (configuration not stated) |  |  | inactive |
| O=S(=O)(NCCSSCCNS(=O)(=O)c1cccs1)c1cccs1 | > 200 | 20 |  |
| CCCCCCCCCCCCNC(=S)OC |  |  | inactive |
| CCOC(=O)Cn1c(=O)cc(C=O)c2ccccc21 | > 200 | 15.5 |  |
| CC(=O)C(=Cc1ccc([N+](=O)[O-])cc1)C(C)=O | > 155 | 27.5 |  |
| CC(C)=CCCc1c(C)ccc2c1C(=O)C(=O)C(C(C)C)=C2O | > 57.5 | 33.9 |  |
| CC1=C(C#N)C(C#N)(C#N)C(NN(C)C)C1 (configuration not stated) | > 200 | 3.8 |  |
| O=C(Cn1cc(I)c(C(=O)NCC(O)CO)n1)NCC(O)CO (configuration not stated) | > 562 | > 562 |  |
| NNC1=N/C(=C\c2ccco2)C(Cl)=N1 | > 200 | 38 |  |

| Compound | EC50 [µM] | IC50 [µM] | outcome |
| --- | --- | --- | --- |
| NS(=O)(=O)c1nnc(NS(=O)(=O)c2ccc(F)cc2)s1 | > 200 | > 200 |  |
| CC(NCCCCCCNC(C)C(=O)O)C(=O)O (configuration not stated) | > 589 | > 589 |  |
| c1ccc2c(c1)nnn1c3cnccc3nc21 | > 58.9 | 6.76 |  |
| C[n+]1ccc(-c2c3nc(c(-c4cc[n+](C)cc4)c4ccc([n-]4)c(-c4cc[n+](C)cc4)c4nc(c(-c5cc[n+](C)cc5)c5ccc2[n-]5)C=C4)C=C3)cc1.[I-].[Zn+2] | > 72.4 | 14.1 |  |
| O=C1CCC(C(=O)N2CSCC2C(=O)O)N1 (configuration not stated) ([pGlu]-[Thz]-OH; configuration not given here) | > 200 | > 200 |  |
| N/N=C1\C(=O)N(C2CCCCCC2)C(=O)C1C(=O)NC1CCCCCC1 (configuration not stated) | > 14.5 | > 14.5 |  |
| N#Cc1c(NC(=S)NC(=O)c2ccccc2)nc2c(c1-c1ccccc1)CCCC2 | > 200 | 141 |  |
| Cn1cc2ccccc2c1-c1nc(N)nc(F)n1 | > 107 | 64.6 |  |
| CCOC(=O)C(NC(=O)Nc1ccccc1F)(OC)C(F)(F)F (configuration not stated) | > 200 | > 200 |  |
| Oc1ccc(/C=N/c2nccs2)c(O)c1 | > 200 | 138 |  |
| CCOC(=O)N[C@H]1CCc2cc(OC)c(OC)c(OC)c2-c2ccc(SC)c(=O)cc21 | > 0.2 | 0.00123 |  |
| O=C1NN(C2=NNC3(C(=O)N2)c2ccccc2-c2ccccc23)C(c2ccccc2)=N/C1=C/c1ccc(O)cc1 | > 100 | 66.1 |  |
| Nc1nccc(NCC2(CO)CC(CCc3ccccc3)C2)n1 (configuration not stated) | > 200 | 10.5 |  |
| COC(=O)c1cc(CC(C)C)c2c(c1)[nH]c1ccccc12 | > 35.5 | > 35.5 |  |
| Cc1c(C#N)c(=O)[nH]c(=O)n1CCN1CCN(C(=O)NCCCCCCNC(=O)N2CCN(CCn3c(C)c(C#N)c(=O)[nH]c3=O)CC2)CC1 |  |  | inactive |
| O=C1c2ccc(S(=O)(=O)O)cc2C(=O)c2cc(S(=O)(=O)O)ccc21 |  |  | inactive |
| O=C(Nc1ccccc1)[C@H](O)[C@@H](O)C(=O)Nc1ccccc1 | > 60.3 | 49 |  |
| O=C(Nc1c(C(=O)NC2CCCCC2)[nH]c(=O)[nH]c1=O)c1ccc(Cl)cc1 |  |  | inactive |
| O=C(C(=O)n1ccc2ccccc21)c1c[nH]c2ccccc12 | > 200 | > 200 |  |
| NC(=O)CNC(=O)CCCCC1CCSS1 (configuration not stated) | 51.3 | > 200 |  |
| CN(C)CCN1CCc2c([nH]c3ccccc23)C1c1cccnc1 (configuration not stated) | > 6.31 | > 6.31 |  |

Source: PubChem BioAssay AID179 (DTP/NCI, 2004)
